The record followed here is patent publication US9200001B2, “Triazolyl PDE10 inhibitors” (Merck Sharp & Dohme Corp., priority 2011, dated 2015).

For orientation: Ki means the dissociation constant of the complex between target and ligand, obtained from inhibition or displacement.

Sequence of human PDE10A2 (Q9Y233 267-1055): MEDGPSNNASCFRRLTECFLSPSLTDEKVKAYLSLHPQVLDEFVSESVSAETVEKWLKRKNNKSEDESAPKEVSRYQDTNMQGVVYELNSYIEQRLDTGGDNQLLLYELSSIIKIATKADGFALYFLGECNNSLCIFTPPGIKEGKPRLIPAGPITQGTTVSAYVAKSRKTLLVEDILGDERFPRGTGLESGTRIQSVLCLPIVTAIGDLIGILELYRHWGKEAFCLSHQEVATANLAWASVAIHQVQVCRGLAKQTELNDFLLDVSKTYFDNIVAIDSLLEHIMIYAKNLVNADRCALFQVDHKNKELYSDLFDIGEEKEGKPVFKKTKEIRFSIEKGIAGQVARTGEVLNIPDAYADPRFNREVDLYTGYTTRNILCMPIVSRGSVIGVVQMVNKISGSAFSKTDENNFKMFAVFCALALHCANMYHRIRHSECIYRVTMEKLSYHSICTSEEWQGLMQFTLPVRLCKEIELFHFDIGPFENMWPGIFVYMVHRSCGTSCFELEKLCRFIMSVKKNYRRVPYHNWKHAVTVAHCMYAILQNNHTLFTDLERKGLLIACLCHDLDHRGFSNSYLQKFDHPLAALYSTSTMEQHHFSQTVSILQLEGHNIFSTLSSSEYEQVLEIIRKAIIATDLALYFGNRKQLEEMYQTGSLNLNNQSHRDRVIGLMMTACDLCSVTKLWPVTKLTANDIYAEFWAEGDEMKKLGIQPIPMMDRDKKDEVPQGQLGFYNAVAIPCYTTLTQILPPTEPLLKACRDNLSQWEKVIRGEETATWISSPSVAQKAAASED

This assay has as its target human PDE10A2 (Homo sapiens (Human), UniProt Q9Y233). The experiment in a line: PDE10 fluorescence polarization (IMAP FP) inhibition assay. The conditions noted are these: FAM-labeled cAMP 50 nM, room temperature, read-out: PDE10a Ki. Format: biochemical. On the procedure:
The activity of the compounds in accordance with the present invention as PDE10 inhibitors may be readily determined without undue experimentation using a fluorescence polarization (FP) methodology that is well known in the art (Huang, W., et al., J. Biomol Screen, 2002, 7: 215).
In a typical experiment the PDE10 inhibitory activity of the compounds of the present invention was determined in accordance with the following experimental method. PDE10A2 was amplified from human fetal brain cDNA (Clontech, Mountain View, Calif.) using a forward primer corresponding to nucleotides 56-77 of human PDE10A2 (Accession No. AF127480, Genbank Identifier 4894716), containing a Kozak consensus sequence, and a reverse primer corresponding to nucleotides 2406-2413 of human PDE10A2 (Accession No. AF127480, Genbank Identifier 4894716). Amplification with Easy-A polymerase (Stratagene, La Jolla, Calif.) was 95° C. for 2 minutes followed by thirty three cycles of 95° C. for 40 seconds, 55° C. for 30 seconds, and 72° C. for 2 minutes 48 seconds. Final extension was 72° C. for 7 minutes. The PCR product was TA cloned into pcDNA3.2-TOPO (Invitrogen, Carlsbad, Calif.) according to standard protocol. AD293 cells with 70-80% confluency were transiently transfected with human PDE10A2/pcDNA3.2-TOPO using Lipofectamine 2000 according to manufacturer specifications (Invitrogen, Carlsbad, Calif.). Cells were harvested 48 hours post-transfection and lysed by sonication (setting 3, 10×5 sec pulses) in a buffer containing 20 mM HEPES, 1 mM EDTA and protease inhibitor cocktail (Roche). Lysate was collected by centrifugation at 75,000×g for 20 minutes. Supernatant containing the cytoplasmic fraction was used for evaluation of PDE10A2 activity. The fluorescence polarization assay for cyclic nucleotide phosphodiesterases was performed using an IMAP® FP kit supplied by Molecular Devices, Sunnyvale, Calif. (product # R8139). IMAP® technology has been applied previously to phosphodiesterase assays (Huang, W., et al., J. Biomol Screen, 2002, 7: 215). Assays were performed at room temperature in 384-well microtiter plates with an incubation volume of 20.2 μL. Solutions of test compounds were prepared in DMSO and serially diluted with DMSO to yield 8 μL of each of 10 solutions differing by 3-fold in concentration, at 32 serial dilutions per plate. 100% inhibition is determined using a known PDE10 inhibitor, which can be any compound that is present at 5,000 times its Ki value in the assay described as follows, such as papaverine (see Siuciak, et al. Neuropharmacology (2006) 51:386-396; Becker, et al. Behav Brain Res (2008) 186(2):155-60; Threlfell, et al., J Pharmacol Exp Ther (2009) 328(3):785-795), 2-{4-[pyridin-4-yl-1-(2,2,2-trifluoroethyl)-1H-pyrazol-3-yl]phenoxymethyl}quinoline succinic acid or 2-[4-(1-methyl-4-pyridin-4-yl-1H-pyrazol-3-yl)-phenoxymethyl]quinoline succinic acid (see Schmidt, et al. J Pharmacol Exp Ther (2008) 325:681-690; Threlfall, et al., J Pharmacol Exp Ther (2009) 328(3): 785-795). 0% of inhibition is determined by using DMSO (1% final concentrations).
A Labcyte Echo 555 (Labcyte, Sunnyvale, Calif.) is used to dispense 200 nL from each well of the titration plate to the 384 well assay plate. A solution of enzyme (1/1600 dilution from aliquots; sufficient to produce 20% substrate conversion) and a separate solution of FAM-labeled cAMP PDE from Molecular Devices (product # R7506), at a final concentration of 50 nM are made in the assay buffer (10 mM Tris HCl, pH 7.2, 10 mM MgCl2, 0.05% NaN3 0.01% Tween-20, and 1 mM DTT). The enzyme and the substrate are then added to the assay plates in two consecutive additions of 10 μL, and then shaken to mix. The reaction is allowed to proceed at room temperature for 30 minutes. A binding solution is then made from the kit components, comprised of 80% Solution A, 20% Solution B and binding reagent at a volume of 1600 the total binding solution. […]
A general note: Fluorescence polarisation rises when a labelled molecule tumbles more slowly, as on binding a larger partner.
Regarding `Cc1nc(C)n(-c2cc([C@@H]3C[C@H]3c3nc4ccccc4n3C)nc(C(C)(C)O)n2)n1` [Cpd 131, 2-(4-(3,5-dimethyl-1H-1,2,4-triazol-1-yl)-6-((1R,2R)-2-(1-methyl-1H-benzo[d]imidazol-2-yl)cyclopropyl)pyrimidin-2-yl)propan-2-ol], the inhibitory constant (Ki) came out at 0.88 nM. As to `CO[C@@H](C)c1nc(C)nn1-c1cc([C@@H]2C[C@H]2c2nc3ccccc3n2C)nc(C)n1` [Cpd 95, 2-[(1R,2R)-2-(6-{5-[(1S)-1-methoxyethyl]-3-methyl-1H-1,2,4-triazol-1-yl}-2-methylpyrimidin-4-yl)cyclopropyl]-1-methyl-1H-benzimidazole], the inhibitory constant (Ki) worked out at 2.1 nM. Turning to `Cc1nc(C)n(-c2cc([C@@H]3C[C@H]3c3nc4ccccc4n3C)nc(N3CCC[C@H]3C)n2)n1` [Cpd 133, 2-((1R,2R)-2-(6-(3,5-dimethyl-1H-1,2,4-triazol-1-yl)-2-((R)-2-methylpyrrolidin-1-yl)pyrimidin-4-yl)cyclopropyl)-1-methyl-1H-benzo[d]imidazole], the inhibition constant (Ki) stood at 0.37 nM. The figure for `Cc1nc([C@H]2C[C@@H]2c2nc3ccccc3n2C)cc(-n2nc(C)nc2-c2cccnc2)n1` (stereo in doubt) [Cpd 81, 1-methyl-2-{2-[2-methyl-6-(3-methyl-5-pyridin-3-yl-1H-1,2,4-triazol-1-yl)pyrimidin-4-yl]cyclopropyl}-1H-benzimidazole] is 12.8 nM; for `COc1ccc(Cc2nc(C)nn2-c2cc(CCc3ccc4ncccc4n3)nc(C)n2)cc1OC` [Cpd 16, 2-(2-(6-(5-(3,4-dimethoxybenzyl)-3-methyl-1H-1,2,4-triazol-1-yl)-2-methylpyrimidin-4-yl)ethyl)-1,5-naphthyridine] it is 0.027 nM; for `Cc1nc(C)n(-c2cc([C@@H]3C[C@H]3c3nc4ccccc4n3C)nc(O)n2)n1` (relative stereo) [Cpd 125, trans-4-(3,5-dimethyl-1H-1,2,4-triazol-1-yl)-6-[2-(1-methyl-1H-benzimidazol-2-yl)cyclopropyl]pyrimidin-2-ol] it is 19 nM. The value for `Cc1nc(C2CC2c2nc3ccccc3n2C)cc(-n2nc(C)nc2C)n1` (stereo not shown) [Cpd 36, 2-(2-(6-(3,5-dimethyl-1H-1,2,4-triazol-1-yl)-2-methylpyrimidin-4-yl)cyclopropyl)-1-methyl-1H-benzo[d]imidazole] was 3.5 nM. `COc1ccc(Cc2nc(C)nn2-c2cc(C3CC3c3cc4n(n3)CCC4)nc(C)n2)cc1OC` (stereo not shown) [Cpd 42, 2-(2-(6-(5-(3,4-dimethoxybenzyl)-3-methyl-1H-1,2,4-triazol-1-yl)-2-methylpyrimidin-4-yl)cyclopropyl)-5,6-dihydro-4H-pyrrolo[1,2-b]pyrazole]: the inhibition constant (Ki) amounted to 0.5 nM. As for `Cc1ccc(CCc2cc(-n3nc(C)nc3C)nc(C)n2)nc1` [Cpd 50, 4-(3,5-dimethyl-1H-1,2,4-triazol-1-yl)-2-methyl-6-(2-(5-methylpyridin-2-yl)ethyl)pyrimidine], the inhibition constant Ki came to 0.14 nM. The figure for `COc1ccc(Cc2nc(C)nn2-c2cc([C@H]3C[C@@H]3c3nc4ccccc4[nH]3)nc(C)n2)cc1OC` [Cpd 25, 2-((1S,2S)-2-(6-(5-(3,4-dimethoxybenzyl)-3-methyl-1H-1,2,4-triazol-1-yl)-2-methylpyrimidin-4-yl)cyclopropyl)-1H-benzo[d]imidazole] is 0.027 nM; for `Cc1nc([C@@H]2C[C@H]2c2nc3ccccc3n2C)cc(-n2nc(C)nc2C2CCN(C)CC2)n1` [Cpd 96, 1-methyl-2-[(1R,2R)-2-{2-methyl-6-[3-methyl-5-(1-methylpiperidin-4-yl)-1H-1,2,4-triazol-1-yl]pyrimidin-4-yl}cyclopropyl]-1H-benzimidazole] it is 3.9 nM. The figure for `Cc1nc(CCc2ccc3ncccc3n2)cc(-n2nc(C)nc2C)n1` [Cpd 99, 2-{2-[6-(3,5-dimethyl-1H-1,2,4-triazol-1-yl)-2-methylpyrimidin-4-yl]ethyl}-1,5-naphthyridine] is 73 nM. The value for `Cc1cc(-n2nc(C)nc2C)cc([C@@H]2C[C@H]2c2nc3ccccc3n2C)n1` (relative stereo) [Cpd 108, trans-2-{2-[4-(3,5-dimethyl-1H-1,2,4-triazol-1-yl)-6-methylpyridin-2-yl]cyclopropyl}-1-methyl-1H-benzimidazole] was 14.2 nM.

Take `COc1ccc(Cc2nc(C)nn2-c2cc([C@@H]3C[C@H]3c3nc4ccccc4[nH]3)nc(C)n2)cc1OC` [Cpd 26, 2-((1R,2R)-2-(6-(5-(3,4-dimethoxybenzyl)-3-methyl-1H-1,2,4-triazol-1-yl)-2-methylpyrimidin-4-yl)cyclopropyl)-1H-benzo[d]imidazole]: the inhibition constant Ki was determined as 0.005 nM. On to `Cc1nc(C2CC2c2nc3ccccc3n2Cc2ccccc2)cc(-n2nc(C)nc2C)n1` (stereo not shown) [Cpd 52, 1-benzyl-2-(2-(6-(3,5-dimethyl-1H-1,2,4-triazol-1-yl)-2-methylpyrimidin-4-yl)cyclopropyl)-1H-benzo[d]imidazole], for which the inhibition constant Ki came out at 13.4 nM.

As to `Cc1nc([C@@H]2C[C@H]2c2nc3ccc(F)cc3[nH]2)cc(-n2nc(C)nc2C)n1` [Cpd 68, 2-{(1R,2R)-2-[6-(3,5-dimethyl-1H-1,2,4-triazol-1-yl)-2-methylpyrimidin-4-yl]cyclopropyl}-6-fluoro-1H-benzimidazole], the Ki was found to be 9.2 nM. The value for `Cc1nc([C@@H]2C[C@H]2c2nc3ccccc3n2C)cc(-n2nc(C)nc2C(C)(C)O)n1` [Cpd 98, 2-(3-methyl-1-{2-methyl-6-[(1R,2R)-2-(1-methyl-1H-benzimidazol-2-yl)cyclopropyl]pyrimidin-4-yl}-1H-1,2,4-triazol-5-yl)propan-2-ol] was 4.2 nM; that for `Cc1nc(C)n(-c2cc([C@H]3C[C@@H]3c3nc4ccccc4n3C)cnn2)n1` (relative stereo) [Cpd 128, trans-2-{2-[6-(3,5-dimethyl-1H-1,2,4-triazol-1-yl)pyridazin-4-yl]cyclopropyl}-1-methyl-1H-benzimidazole] was 38 nM. The value for `COc1ccc(Cc2nc(C)nn2-c2cc(C#Cc3ccc4ncccc4n3)nc(C)n2)cc1OC` [Cpd 14, 2-((6-(5-(3,4-dimethoxybenzyl)-3-methyl-1H-1,2,4-triazol-1-yl)-2-methylpyrimidin-4-yl)ethynyl)-1,5-naphthyridine] was 0.82 nM; that for `Cc1nc([C@@H]2C[C@H]2c2nc3ccccc3n2CC2CCCCO2)cc(-n2nc(C)nc2C)n1` (stereo in doubt) [Cpd 70, 2-{2-[6-(3,5-dimethyl-1H-1,2,4-triazol-1-yl)-2-methylpyrimidin-4-yl]cyclopropyl}-1-(tetrahydro-2H-pyran-2-ylmethyl)-1H-benzimidazole] was 6 nM; that for `Cc1nc(C)n(-c2cc([C@H]3C[C@@H]3c3nc4ccccc4n3C)nc(NC(C)(C)C)n2)n1` (relative stereo) [Cpd 118, trans-N-tert-butyl-4-(3,5-dimethyl-1H-1,2,4-triazol-1-yl)-6-[2-(1-methyl-1H-benzimidazol-2-yl)cyclopropyl]pyrimidin-2-amine] was 1.7 nM. The figure for `Cc1nc([C@H]2C[C@@H]2c2nc3ccccc3n2C)cc(-n2nc(C)nc2-c2ccccn2)n1` (stereo in doubt) [Cpd 82, 1-methyl-2-{2-[2-methyl-6-(3-methyl-5-pyridin-2-yl-1H-1,2,4-triazol-1-yl)pyrimidin-4-yl]cyclopropyl}-1H-benzimidazole] is more than 75 nM.
